According to PMC11650638, “In Vivo Activity Profiling of Biosynthetic Darobactin D22 against Critical Gram-Negative Pathogens” (ACS Infectious Diseases, 2024):

What was measured:
Escherichia coli 106-09 = assay: Murine peritonitis/sepsis model; type: in vivo, CD-1 female mice; conditions: 40 mg/kg SC q6h
Experimental: Mice were infected IP (Figure S7). […]
reduce stress and harm arising from experimental procedures, including use of analgesia, access to wet food and additional bedding. The room temperature, relative humidity and maximum background noise were maintained according to Home Office Code of Practice. Mice were exposed to 12-hour light/dark […]
Mice were immunosuppressed using cyclophosphamide administered subcutaneously (SC) at 150 mg/kg on day minus 4 and at 100 mg/kg on day minus 1 relative to the day of infection. Following […]
CFU/thigh P. aeruginosa PAO1 by intramuscular (IM) injection of 50 µL bacterial suspension into both thighs. Following infection, a single dose of carprofen was administered SC to provide pain relief.
One hour post-inoculation, one group of mice were euthanized to quantify the pre-treatment bacterial burden. […]
At eight or 25 hours post infection, mice were euthanized by overdose of pentobarbitone and death confirmed by cervical dislocation. […] The bacterial burden was quantified following overnight incubation of agar plates at 37°C. For analytical purposes, burdens from individual thighs were counted as independent […]
intravenously. Mice were observed during the study and scored 0 – 4 based on their behavior and clinical signs of discomfort and euthanized at the humane endpoint as a surrogate marker for death. […]

Acinetobacter baumannii = assay: MIC50/MIC90 determination and MIC against isolates of A. baumannii; type: cell-based
Klebsiella pneumoniae = assay: MIC50/MIC90 determination and MIC against isolates of K. pneumoniae; type: cell-based
Pseudomonas aeruginosa = assay: MIC50/MIC90 determination and MIC against isolates of P. aeruginosa; type: cell-based
Escherichia coli = assay: MIC50/MIC90 determination and MIC against isolates of E. coli; type: cell-based

With `C[C@@H](O)[C@H]1C(=O)N2C(C(=O)O)=C(S[C@@H]3CN[C@H](C(=O)N(C)C)C3)[C@H](C)[C@H]12` [MER, Meropenem] the “Δlog CFU/mL Blood compared to SOT” value (Escherichia coli 106-09) was “–2.98 log CFU/mL” and the “Δlog CFU/mL PF compared to SOT” value (Escherichia coli 106-09) was “–4.33 log CFU/mL”.

colistin gave an MIC (Acinetobacter baumannii; isolate ATCC17978) of 4 µg/mL, an MIC (Acinetobacter baumannii; isolate ATCC19003) of 2 to 4 µg/mL and an MIC (Acinetobacter baumannii; isolate ATCC19187) of 4 µg/mL. For the same compound, the MIC (Acinetobacter baumannii; isolate ATCC19606) was 4 µg/mL, the MIC (Acinetobacter baumannii; isolate ATCC27224) was 2 µg/mL and the MIC (Acinetobacter baumannii; isolate ATCC51432) was 8 µg/mL. The MIC (Acinetobacter baumannii; isolate ATCC BAA-747) was 4 µg/mL, the MIC (Acinetobacter baumannii; isolate ATCC BAA-1605) was 2 µg/mL and the MIC (Acinetobacter baumannii; isolate ATCC BAA-1710) was 4 to 8 µg/mL. For the same compound, the MIC (Acinetobacter baumannii; isolate ATCC BAA-1791) was 2 µg/mL, the MIC (Acinetobacter baumannii; isolate ATCC BAA-1795) was 8 µg/mL and the MIC (Acinetobacter baumannii; isolate ATCC BAA-1878) was 4 µg/mL. The MIC (Acinetobacter baumannii; isolate BM4454) was 4 to 8 µg/mL, the MIC (Acinetobacter baumannii; isolate BM4652 (efflux mutant)) was 4 µg/mL and the MIC (Acinetobacter baumannii; isolate CIP 105742) was 2 µg/mL. The MIC (Acinetobacter baumannii; isolate CIP 107292) was 4 to 8 µg/mL, the MIC (Acinetobacter baumannii; isolate DSM 30008) was 4 µg/mL and the MIC (Acinetobacter baumannii; isolate G478 (AYE)) was 2 to 8 µg/mL. For the same compound, the MIC (Acinetobacter baumannii; isolate NCTC13301) was 8 µg/mL, the MIC (Acinetobacter baumannii; isolate R831) was 4 to 8 µg/mL and the MIC (Acinetobacter baumannii; isolate R835) was 4 to 8 µg/mL. For the same compound, the MIC (Klebsiella pneumoniae; isolate ATCC13883) was 1 µg/mL, the MIC (Klebsiella pneumoniae; isolate ATCC13883 ColR_) was 64 µg/mL and the MIC (Klebsiella pneumoniae; isolate ATCC43816) was 1 µg/mL. It also gave an MIC (Klebsiella pneumoniae; isolate ATCC BAA-1705) of 2 µg/mL, an MIC (Klebsiella pneumoniae; isolate ATCC BAA-1903) of 1 µg/mL and an MIC (Klebsiella pneumoniae; isolate ATCC BAA-2342) of 4 µg/mL. The MIC (Klebsiella pneumoniae; isolate ATCC BAA-2470) was 1 µg/mL, the MIC (Klebsiella pneumoniae; isolate ATCC BAA-2472) was 2 µg/mL and the MIC (Klebsiella pneumoniae; isolate ATCC BAA-2473) was 1 µg/mL. It also gave an MIC (Klebsiella pneumoniae; isolate CIP 104119) of 1 µg/mL, an MIC (Klebsiella pneumoniae; isolate CIP 104298) of 16 µg/mL and an MIC (Klebsiella pneumoniae; isolate CIP 105705) of 2 µg/mL. For the same compound, the MIC (Klebsiella pneumoniae; isolate CIP 106982) was 2 µg/mL, the MIC (Klebsiella pneumoniae; isolate Clinical Lyo-01) was 1 µg/mL and the MIC (Klebsiella pneumoniae; isolate Clinical Lyo-02) was 1 µg/mL. The MIC (Klebsiella pneumoniae; isolate Clinical Lyo-03) was 2 µg/mL, the MIC (Klebsiella pneumoniae; isolate Clinical Lyo-04) was 1 µg/mL and the MIC (Klebsiella pneumoniae; isolate Clinical Lyo-05) was 1 µg/mL. The MIC (Klebsiella pneumoniae; isolate G52) was 1 µg/mL, the MIC (Klebsiella pneumoniae; isolate G197) was 1 µg/mL and the MIC (Klebsiella pneumoniae; isolate G201) was 1 µg/mL. The MIC (Klebsiella pneumoniae; isolate G306) was 1 µg/mL, the MIC (Klebsiella pneumoniae; isolate NCTC13438) was 1 µg/mL and the MIC (Klebsiella pneumoniae; isolate NCTC13439) was 2 µg/mL. The MIC (Klebsiella pneumoniae; isolate NCTC13442) was 1 µg/mL, the MIC (Klebsiella pneumoniae; isolate NCTC13443) was 1 µg/mL and the MIC (Klebsiella pneumoniae; isolate R750) was 1 µg/mL. The MIC (Klebsiella pneumoniae; isolate R1242) was 1 µg/mL, the MIC (Klebsiella pneumoniae; isolate R1525) was 1 µg/mL and the MIC (Klebsiella pneumoniae; isolate R2673) was 1 µg/mL. For the same compound, the MIC (Pseudomonas aeruginosa; isolate ATCC BAA-2114) was 2 µg/mL, the MIC (Pseudomonas aeruginosa; isolate BOR 04) was 4 µg/mL and the MIC (Pseudomonas aeruginosa; isolate BOR 05) was 4 µg/mL. The MIC (Pseudomonas aeruginosa; isolate CAE 02) was 2 µg/mL, the MIC (Pseudomonas aeruginosa; isolate CHA) was 2 µg/mL and the MIC (Pseudomonas aeruginosa; isolate CHRU LILLE VAP11) was 4 µg/mL. For the same compound, the MIC (Pseudomonas aeruginosa; isolate CHRU LILLE VAP65a) was 4 µg/mL, the MIC (Pseudomonas aeruginosa; isolate CIP 105250) was 2 µg/mL and the MIC (Pseudomonas aeruginosa; isolate CIP 105381) was 2 µg/mL. The MIC (Pseudomonas aeruginosa; isolate CIP 107051) was 2 µg/mL, the MIC (Pseudomonas aeruginosa; isolate CLI 02) was 2 to 4 µg/mL and the MIC (Pseudomonas aeruginosa; isolate CLI 03) was 2 µg/mL. For the same compound, the MIC (Pseudomonas aeruginosa; isolate COL 03) was 2 µg/mL, the MIC (Pseudomonas aeruginosa; isolate DIJ 02) was 2 µg/mL and the MIC (Pseudomonas aeruginosa; isolate NANC 01) was 2 µg/mL. For the same compound, the MIC (Pseudomonas aeruginosa; isolate NANC 06) was 4 µg/mL, the MIC (Pseudomonas aeruginosa; isolate NCTC13437) was 2 µg/mL and the MIC (Pseudomonas aeruginosa; isolate PA 43) was 2 µg/mL. It also gave an MIC (Pseudomonas aeruginosa; isolate PAO1) of 4 µg/mL, an MIC (Pseudomonas aeruginosa; isolate PBI 01) of 4 µg/mL and an MIC (Pseudomonas aeruginosa; isolate PBI 03G) of 2 µg/mL. It also gave an MIC (Pseudomonas aeruginosa; isolate PBI 07) of 2 µg/mL, an MIC (Pseudomonas aeruginosa; isolate PGP 02) of 4 µg/mL and an MIC (Pseudomonas aeruginosa; isolate R1541) of 4 µg/mL. For the same compound, the MIC (Pseudomonas aeruginosa; isolate R2254) was 4 µg/mL, the MIC (Pseudomonas aeruginosa; isolate R2255) was 2 µg/mL and the MIC (Pseudomonas aeruginosa; isolate R2256) was 2 µg/mL. It also gave an MIC (Pseudomonas aeruginosa; isolate ROU 01) of 4 µg/mL, an MIC (Pseudomonas aeruginosa; isolate SDE 05) of 2 µg/mL and an MIC (Pseudomonas aeruginosa; isolate STR 02) of 2 µg/mL. For the same compound, the MIC (Pseudomonas aeruginosa; isolate TOUL 01) was 2 to 4 µg/mL, the MIC (Escherichia coli; isolate ATCC25922) was 2 to 4 µg/mL and the MIC (Escherichia coli; isolate ATCC BAA-2340) was 2 µg/mL. It also gave an MIC (Escherichia coli; isolate ATCC BAA-2469) of 2 µg/mL, an MIC (Escherichia coli; isolate ATCC BAA-2471) of 1 to 2 µg/mL and an MIC (Escherichia coli; isolate CIP 104103) of 1 to 2 µg/mL. It also gave an MIC (Escherichia coli; isolate CIP 105706) of 1 to 2 µg/mL, an MIC (Escherichia coli; isolate CIP 107049) of 2 to 4 µg/mL and an MIC (Escherichia coli; isolate G38) of 2 µg/mL. The MIC (Escherichia coli; isolate G41 (first listing)) was 2 µg/mL, the MIC (Escherichia coli; isolate G41 (second listing)) was 1 µg/mL and the MIC (Escherichia coli; isolate G260) was 2 µg/mL. The MIC (Escherichia coli; isolate G264) was 2 µg/mL, the MIC (Escherichia coli; isolate G409) was 2 µg/mL and the MIC (Escherichia coli; isolate G486) was 2 µg/mL. For the same compound, the MIC (Escherichia coli; isolate G487) was 1 µg/mL, the MIC (Escherichia coli; isolate NCTC10418) was 2 to 4 µg/mL and the MIC (Escherichia coli; isolate NCTC13352) was 2 to 4 µg/mL. It also gave an MIC (Escherichia coli; isolate NCTC13400) of 1 µg/mL, an MIC (Escherichia coli; isolate NCTC13441) of 2 µg/mL and an MIC (Escherichia coli; isolate NCTC13846) of 8 µg/mL. For the same compound, the MIC (Escherichia coli; isolate PRAA1) was 1 µg/mL, the MIC (Escherichia coli; isolate PRAA3) was 2 to 4 µg/mL and the MIC (Escherichia coli; isolate PRAA17) was 2 µg/mL. The MIC (Escherichia coli; isolate PRAA18) was 2 µg/mL, the MIC (Escherichia coli; isolate PRAA21) was 2 to 4 µg/mL and the MIC (Escherichia coli; isolate R721) was 2 µg/mL. For the same compound, the MIC (Escherichia coli; isolate R995) was 2 µg/mL, the MIC (Escherichia coli; isolate R996) was 1 µg/mL and the MIC (Escherichia coli; isolate R1535) was 2 µg/mL. For the same compound, the MIC (Escherichia coli; isolate R2670) was 1 to 2 µg/mL.
